{
  "source": "patent US20150119251A1",
  "about": "“AGRICULTURAL PLANT-PROTECTING AGENTS CONTAINING DIPEPTIDE DERIVATIVE AS ACTIVE INGREDIENT” (REPUBLIC OF KOREA (RURAL DEVELOPMENT ADMINISTRATION), priority 2012, published 2015)",
  "key": {"[1]": {"tested_on": "GUS gene induced by PR-1α disease-resistance promoter", "assay": "PR-1a GUS activation on tobacco leaves (MUG fluorescence)", "type": "in vivo, tobacco (Xanth-nc)", "conditions": "tobacco leaf injection, after three days", "description": "After the tobacco (Xanth-nc) bound with GUS gene induced by PR-1α disease-resistance promoter was grown for 3 weeks, 100 μL of the diluted solution of Compound 74 was injected to second leaves with a syringe. After three days, the surrounding leaves were collected in an internal diameter size of 5 mm with a cork borer, the samples thus obtained were added to a 1.5 mL of an eppendorf tube, and 20 μL of GUS extraction buffer solution was further added, ground, and then centrifuged at 8000 G for 3 minutes to obtain supernatant. The same amount of 2 mM MUG (4-methyl umbellifryl-B-glucuronide) solution was added, reacted at 37° C. for 1 hour, and then 960 μL of stop buffer solution (0.2 M, Na2CO3 solution) was added to be 1 mL. Since then, the fluorescence was measured with a TKO 100 fluorometer (Hoefoer Scientific Instruments, USA). At this time, the fluorescence amount was calibrated using a MU (4-methyl umbellyferon) as a standard reagent, and the GUS activity was calculated using MU-mM/sample−10 mg/time. The results thus obtained are listed in the following Table 2 and illustrated in FIG. 2."}, "[2]": {"tested_on": "pepper phytophthora blight (Phytopthora capsici)", "assay": "Suppression of pepper phytophthora blight on leaves", "type": "in vivo", "conditions": "0.1 mM"}, "[3]": {"tested_on": "tobacco bacterial rot (Pectobacterium carotovorum)", "assay": "Suppression of tobacco bacterial rot", "type": "in vivo, Pectobacterium carotovorum SCC1", "summary_of_the_method": "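Test compounds at 1, 10 and 100 ppm (from 20% methanol stock) were applied to tobacco leaves; 7 days later plants were sprayed with Pectobacterium carotovorum SCC1 at 10^8 cfu/mL and kept 3 days at 30° C. Lesion area scored visually as 0–100%.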"}, "[4]": {"tested_on": "anthracnose germ (Colletotrichum orbiculare)", "assay": "Suppression of anthracnose on cucumber leaves by seed treatment", "type": "in vivo", "conditions": "seeds treated at 100 ppm for 2 hours, spores sprayed after 3 weeks, read after 7 days, FIG. 4", "description": "Compound 61 or Compound 74 were deposited on the seeds of cucumbers in the concentration of 100 ppm for 2 hours, and after 3 weeks, the spores of anthracnose germ (Colletotrichum orbiculare) were sprayed in the concentration of 10^5 spore/mL thereto, and then, after 7 days, the disease outbreak was investigated. The results thus obtained are illustrated in the photographs of FIG. 4."}, "[5]": {"tested_on": "PR1, PR4, PR10, beta-1,3-glucanase, chitinase and peroxidase genes", "assay": "Expression of defense genes in pepper plant (RT-PCR) after compound treatment and pathogen inoculation", "type": "in vivo", "conditions": "pepper seedling, compound treated and then P. carotovora or P. capsici treated, FIG. 1", "source_text": "In order to testify the disease resistance expression in the case of treating the dipeptide derivative of the present invention to the seeding of pepper, PR-1, beta-1,3-glucanase, chitinase, PR4, peroxidase, and PR10 primer, and the seedling of pepper were used. The seedling of pepper was raised in a greenhouse for 4 weeks, Compounds were sprayed thereto in various concentrations, and then, after three or one week, phytophthora (Phytophthora capcisi) and the pathogen of a bacterial rot (Pectobacterium carotovorum) were respectively inoculated.\nSince then, after 12, 24, and 48 hours, the respective pepper leaves were collected in an amount of 1 g, and then, stored at an ultralow temperature-room at […]. The stored plant leaves were pulverized along with liquid nitrogen, and then, […] was extracted by using a RNA extraction kit (Easy-Spin™IIP Total RNA Extraction Kit, Intron Biotechnology, Korea) and Ex Taq polymerase by Kishimoto et al. (2005) (Takara Biomedicals, Otsu, Japan). For amplification, 0.1 μg of cDNA, 10 pMol of each of forward and reverse primers, 250 nM of dNTPs, and 0.5 U of Ex Taq polymerase were added to 20 μl, of a buffer solution. PCR was performed at 94C and 58C in a thermal cycler (PTC-100, USA), and the products by PCR were analyzed under the condition of 1% agarose gel (in 0.5×TAE buffer) (80 V, 60 min). All the RT-PCR tests were repeated twice. […]"}, "[6]": {"tested_on": "pepper phytophthora blight (Phytopthora capsici)", "assay": "Suppression of pepper phytophthora blight on leaves", "type": "in vivo", "conditions": "for Lesion outbreak rate: pepper leaves", "description": "(§1) The peppers were raised in the same method as Example 3, and then, the test compounds were dissolved in 20% methanol to make a stock solution, and a stock was diluted to the concentrations of 0.1, 1.0, and 10.0 ppm. The test solutions were sprayed on the leaves or drench-treated on the leaves. After 7 days, the pathogen of plant bacterial rot (Pectobacterium carotovorum SCC1) was cultured in a TSA medium for 27 hours, and then, wetted on an 8 mm diameter paper disc in the concentration of 10^8 cfu/mL. The paper disc was located in the center of the leaves that were cut roundly, and then, after about 7 days, the lesion area was measured. In the case of phytophthora, the potato agar medium cultured with the phytophthora (Phytophthora capsici) was cut in the internal diameter size of 5 mm with a cork borer, and then inoculated to the leaves. After 7 days, the lesion area was observed. In the case of a bacterial rot, when Compounds 6, 89, 93, and 95 were sprayed on the pepper leaves, the bacterial rot was not found in the concentration of 1 or 10 ppm as compared with the non-treated group. […] The Suppression of lesion formation on the leaves when these compounds were drench-treated to the roots can be explained as it was resulted from that systemic disease resistance was induced in the whole plant. These test results are illustrated in the photographs of FIGS. 5 to 9."}, "Phytophthora capsici": {"tested_on": "Phytophthora capsici", "assay": "Suppression of phytophthora blight in pepper roots and leaves after drench inoculation", "type": "in vivo", "conditions": "sprayed on leaves, roots drench-inoculated after 1 week, observed 7 days, FIG. 10", "source_text": "The peppers were raised in the same method as Example 3, Compound 85 was sprayed on the leaves, and then after 1 week, the Phytophthora capsici swarm suspension was drench-inoculated. While observing for 7 days, the lesion formation on the leaves and roots were investigated. […] The test results of Compound 85 on suppressing the outbreak of phytophthora blight are illustrated in FIG. 10."}, "[7]": {"tested_on": "plant bacterial rot (Pectobacterium carotovorum SCC1)", "assay": "Suppression of bacterial rot on pepper leaves (paper disc on cut leaves)", "type": "in vivo", "conditions": "sprayed on the pepper leaves, 1 or 10 ppm", "description": "as §1"}},
  "note": "Square brackets hold non-standard residues; d marks the D form. Peptide text beside a SMILES is read from it. * marks the point of attachment. Trt = c1ccc(C(c2ccccc2)(c2ccccc2)*)cc1; Boc = CC(C)(C)OC(=O)*",
  "data": [
    {"smiles": "CSC(=O)c1cccc2nnsc12", "note": "[BTH, benzo-1,2,3-thiadiazole-7-carbothio acid S-methyl ester, reference compound]", "values": [
      {"measurement": "PR1a GUS expression", "setting": "[1]; 0.1 mM", "value": "324,000 nM MU/10 mg FW/1 hr"},
      {"measurement": "Lesion outbreak rate", "setting": "[2]", "value": 17, "unit": "area %"},
      {"measurement": "Lesion outbreak rate", "setting": "[3]; Table 3, tobacco, 1 ppm", "value": 90, "unit": "%"},
      {"measurement": "Lesion outbreak rate", "setting": "[3]; Table 3, tobacco, 10 ppm", "value": 90, "unit": "%"},
      {"measurement": "Lesion outbreak rate", "setting": "[3]; Table 3, tobacco, 100 ppm", "value": 90, "unit": "%"},
      {"measurement": "Lesion outbreak rate", "setting": "[3]; Table 4, tobacco, 1 ppm", "value": 88, "unit": "%"},
      {"measurement": "Lesion outbreak rate", "setting": "[3]; Table 4, tobacco, 10 ppm", "value": 88, "unit": "%"},
      {"measurement": "Lesion outbreak rate", "setting": "[3]; Table 4, tobacco, 100 ppm", "value": 88, "unit": "%"},
      {"measurement": "Lesion outbreak rate", "setting": "[3]; Table 5, tobacco, 10 ppm", "value": 25, "unit": "%"},
      {"measurement": "Lesion outbreak rate", "setting": "[3]; Table 5, tobacco, 100 ppm", "value": 25, "unit": "%"},
      {"measurement": "Lesion outbreak rate", "setting": "[3]; Table 6, tobacco, 1 ppm", "value": 100, "unit": "%"},
      {"measurement": "Lesion outbreak rate", "setting": "[3]; Table 6, tobacco, 10 ppm", "value": 100, "unit": "%"},
      {"measurement": "Lesion outbreak rate", "setting": "[3]; Table 6, tobacco, 100 ppm", "value": 100, "unit": "%"}
    ]},
    {"smiles": "COC(=O)[C@@H]1CCCN1C(=O)[C@H](CSC(c1ccccc1)(c1ccccc1)c1ccccc1)NC(=O)OC(C)(C)C", "note": "[Compound 61] (Boc-Cys(Trt)-Pro-OMe)", "values": [
      {"measurement": "Anthracnose on the leaves of cucumber as compared with the non-treated group", "setting": "[4]", "value": "hardly found"},
      {"measurement": "Lesion outbreak rate", "setting": "[3]; Table 5, tobacco, 10 ppm", "value": 20, "unit": "%"},
      {"measurement": "Lesion outbreak rate", "setting": "[3]; Table 5, tobacco, 100 ppm", "value": 16, "unit": "%"}
    ]},
    {"smiles": "COC(=O)[C@H]1CCCN1C(=O)[C@H](CSC(c1ccccc1)(c1ccccc1)c1ccccc1)NC(=O)OC(C)(C)C", "note": "[Compound 74] (Boc-Cys(Trt)-[dP]-OMe)", "values": [
      {"measurement": "Anthracnose on the leaves of cucumber as compared with the non-treated group", "setting": "[4]", "value": "hardly found"},
      {"measurement": "PR1a GUS expression", "setting": "[1]; 0.1 ppm", "value": "7,800 nM MU/10 mg FW/1 hr"},
      {"measurement": "PR1a GUS expression", "setting": "[1]; 1.0 ppm", "value": "15,000 nM MU/10 mg FW/1 hr"},
      {"measurement": "PR1a GUS expression", "setting": "[1]; 10.0 ppm", "value": "420,000 nM MU/10 mg FW/1 hr"},
      {"measurement": "PR1a GUS expression", "setting": "[1]; 100.0 ppm", "value": "860,000 nM MU/10 mg FW/1 hr"},
      {"measurement": "Lesion outbreak rate", "setting": "[3]; Table 6, tobacco, 1 ppm", "value": 25, "unit": "%"},
      {"measurement": "Lesion outbreak rate", "setting": "[3]; Table 6, tobacco, 10 ppm", "value": 34, "unit": "%"},
      {"measurement": "Lesion outbreak rate", "setting": "[3]; Table 6, tobacco, 100 ppm", "value": 22, "unit": "%"}
    ]},
    {"smiles": "CCOC(=O)C(C)NC(=O)C(NC(=O)OC(C)(C)C)C(C)CC", "note": "(stereo not shown) [Compound 80]", "values": [
      {"measurement": "Expression of the genes of PR1, PR4, PR10, beta-1,3-glucanase, chitonase and peroxidase", "setting": "[5]", "value": "strongly expressed"},
      {"measurement": "Lesion outbreak rate", "setting": "[6]; 0.1 ppm", "value": 14, "unit": "area %"},
      {"measurement": "Lesion outbreak rate", "setting": "[6]; 1.0 ppm", "value": 8.9, "unit": "area %"}
    ]},
    {"smiles": "CCC(C)C(NC(=O)OC(C)(C)C)C(=O)N1CCCC1C(=O)OC", "note": "(stereo not drawn) [Compound 85] (Boc-Ile-Pro-OMe; configuration not given here)", "values": [
      {"measurement": "Phytophthora blight (lesion formation) on the leaves and roots as compared with the control group", "setting": "Phytophthora capsici", "value": "significantly suppressed"},
      {"measurement": "Lesion outbreak rate", "setting": "[6]; 0.1 ppm", "value": 24, "unit": "area %"},
      {"measurement": "Lesion outbreak rate", "setting": "[6]; 1.0 ppm", "value": 15, "unit": "area %"}
    ]},
    {"smiles": "COC(=O)[C@H](Cc1ccccc1)NC(=O)[C@@H](N)CC(=O)O", "note": "[Compound 89] (H-Asp-Phe-OMe)", "values": [
      {"measurement": "Expression of the genes of PR1, PR4, PR10, beta-1,3-glucanase, chitonase and peroxidase", "setting": "[5]", "value": "strongly expressed"},
      {"measurement": "Bacterial rot on pepper leaves as compared with the non-treated group", "setting": "[7]", "value": "not found"},
      {"measurement": "Effect on suppressing the outbreak of pepper phytophthora blight or bacterial rot as compared with the non-treated control group", "setting": "[6]; directly sprayed to the leaves, phytophthora blight or bacterial rot", "value": "excellent"},
      {"measurement": "Lesion formation, pepper phytophthora test", "setting": "[6]; drench-treated, 1.0 or 10.0 ppm", "value": "no the lesion formations"},
      {"measurement": "Effect on suppression of the outbreak of pepper phytophthora blight as compared with the control drug BTH", "setting": "[6]; in vivo", "value": "excellent effect"},
      {"measurement": "Lesion outbreak rate", "setting": "[6]; 0.1 ppm", "value": 9.3, "unit": "area %"},
      {"measurement": "Lesion outbreak rate", "setting": "[6]; 1.0 ppm", "value": 2.3, "unit": "area %"}
    ]}
  ]
}
